Test [1] deals with ischemic heart models of beagle dogs. Put plainly: Heart protective (anti-ischemic) activity in ischemic heart models of anesthetized beagle dogs. Type of test: in vivo. The settings on record: total dose 2 mg/kg infused i.v. over 40 min, 90 min occlusion, 5 h reperfusion. As to the method:
In order to determine whether the compounds of the formula 1 are protective for the ischemic hearts of larger animals, experiments determining the anti-ischemic effects of the compounds on beagle dogs were conducted as follows. The experiments on beagle dogs followed the method of Grover et al.' (G. J. Grover et al., J. Cardiovasc. Pharmacol. 25, 40 (1995)).
After being anesthetized by an intravenous injection of pentobarbital at a dose of 35 mg/kg, male beagle dogs (8-12 kg) were further infused with pentobarbital sodium at a dose of 3-4 mg/kg through the right cephalic vein throughout the experiments, so as to keep the anesthesia constant. […] The heart rate was measured by a tachometer, such as that manufactured by Gould Inc., OH, U.S.A., identified as Biotachometer. In addition, all of the changes occurring during the experiment were continuously recorded through the Gould 2000 chart recorder, manufactured by Gould Inc.
The fifth intercostal space was incised to open the thorax and the LAD was separated from its surrounding tissues. […] The LAD part upstream of the silk ligature was isolated from adjacent tissues and the blood flow was measured quantitatively. […] Using polygraph such as Grass Model 7E, the electrocardiogram was measured and read (Lead II). […]

In test [2] the test system is A7r5. In words: Inhibition of A7r5 mediated LDL oxidation (MDA). Type of test: cell-based, rat. The following applies: Rattus norvegicus; for inhibition at 100 µM: 10^-4 M; for inhibition at 10 µM: 10^-5 M; for inhibition at 1 µM: 10^-6 M. As to the method:
A7r5 (ATCC CRL-1444, smooth muscles, thoracic aorta, BDIX rat) cells were cultured in 24 well plates, using the medium of DMEM (Dulbecco's modified Eagle's Medium) supplemented with 10% heat-inactivated FBS (fetal bovine serum) and 1% antibiotics. Confluent A7r5 from plates were washed with phosphate-buffered solution, and DMEM with 10% FBS and 1% antibiotics was added in a total volume of 0.5 ml/well. Cells (2 x 10^5 cells/ml) were preincubated without and with either test compounds (10^-6 - 10^-4 M) or Tocopherol (10^-6 - 10^-4 M) at 37 °C for 30 min. Then, A7r5 alone or A7r5 plus H2O2 (10^-7 M) were exposed to LDL (100 ug/ml) for 24 hr.
The inhibitory effect of the test compounds against the lipid peroxidation was evaluated by calculating MDA reduction rate of the test compounds compared with that of the control group same as the above example 5 (2).

Test [3] relates to diabetic rats. Put plainly: Effects on MNCV (motor nerve conduction velocity) in diabetic rats. The arrangement: MNCV (sec): unit not given here. The following applies: 30 mg/Kg, orally once a day. It counts as in vivo. As to the method:
Diabetes was induced with i.p. (intra peritoneum) injection of streptozocin (65 mg/Kg) in rats, then test compounds dissolved in 2 ml of media (physiological saline: ethanol: tween 80 = 8:1:1), were orally administered once a day. Rats were anesthetized with halothane, then the sciatic nerve was exposed to measure MNCV. The nerve was stimulated at two points. The first stimulus electrode was inserted at proximal end, and second stimulating electrode was inserted at the sciatic notch. The coaxial needle electrode was inserted into interdigital muscle, then the muscle action potential induced by two point stimulation. The conduction velocity was calculated by dividing the distance between two stimulus points by the latency difference. Lipoic acid (100 mg/Kg) was used in comparison with the compound of formula 1 in recovery of impaired MNCV in diabetic rats. The recovery (%) of MNCV was calculated according to the following mathematical formula 4. [Mathematical formula 4] Recovery(%) =(MNCV of treated group - MNCV of diabetic rats)/(MNCV of normal control-MNCV of diabetic rats)x100 [formula]

The mark [4] stands for this setting: A7r5 alone, LDL 100 ug/ml, 24 hr, read-out: % Inhibition LDL.
[5] abbreviates: A7r5 plus H2O2 (10^-7 M), read-out: % Inhibition LDL + H2O2 (10^-7M).

Like-named read-outs stand apart in the source and are kept apart here.

Consider `COC(OC)[C@@]1(C)Oc2ccc([N+](=O)[O-])cc2[C@H](NC(=NC#N)NCc2ccccc2)[C@H]1O` [Example 24, (2S, 3R, 4S)-N''-cyano-N-(6-nitro-3,4-dihydro-3-hydroxy-2-methyl-2-dimethoxymethyl-2H-benzopyran-4-yl)-N'-benzylguanidine], for which the “Anti-ischemic Activity (in vivo, dogs) (2 mg/kg/40 i.v.) min,i.v.) IZ/AAR (%)” value in test [1] was found to be 28.03%.

With `COC(OC)[C@@]1(C)Oc2ccc(N)cc2[C@@H](NC(=NC#N)NCc2ccccc2)[C@@H]1O` [Example 40, (2S, 3S, 4R)-N''-cyano-N-(6 - amino-3,4-dihydro-3-hydroxy-2-methyl-2-dimethoxymethyl-2H-benzopyran-4-yl)-N'-benzylguanidine], in test [2] (setting [4]), the inhibition at 100 µM is 57.5%, the inhibition at 10 µM was 51.4% and the inhibition at 1 µM stood at 40.9%. In addition, in test [2] (setting [5]), the inhibition at 100 µM worked out at 64.3%, the inhibition at 10 µM came out at 62.5% and the inhibition at 1 µM stood at 49.7%. The “MNCV (sec)” value in test [3] (streptozocin diabetic rats) was determined as 47.756. In addition, the “Recovery (%)” value in test [3] (MNCV, diabetic rats) is given as 63.0%.

In general, inhibition refers to the drop in the measured response relative to a control, in per cent.
